Consider seven substances from US20250012799A1, “SARS-COV-2 POLYPEPTIDES AND USES THEREOF” (IAMA FRANCE, priority 2021, published 2025).

Where two headings read alike, the source gives them in different places.

The test system of experiment [1] is NKp44L membrane expression on A549: hu ACE-2 cells. Format: cell-based, human. Particulars: for Induction of NKp44L membrane expression: A549, individual peptides/pools of sub-pools no 8.2 and no 8.3; for induction of the expression of NKp44L (in words): A549: hu ACE-2 lung cell line.
Experiment [2] has as its system NKp44L membrane expression on Calu-3 cells. It counts as cell-based, human. As to conditions: for Induction of NKp44L membrane expression: Calu-3, individual peptides/pools of sub-pools no 8.2 and no 8.3; for induction of the expression of NKp44L (in words): Calu-3 lung cell line.

As to igvtqnvlyenqklianq [Spi228], the “Induction of NKp44L membrane expression” value in experiment [1] (Experiment no 1) is recorded as 75; in experiment [1] (Experiment no 2), 82; in experiment [1] (Experiment no 3) it was 89; in experiment [2] (Experiment no 1), 91; in experiment [2] (Experiment no 2), 103; in experiment [2] (Experiment no 3), 117.

Take nqfnsaigkiqdslssta [Spi232]: the “Induction of NKp44L membrane expression” value is 101 in experiment [1] (Experiment no 1); 127 in experiment [1] (Experiment no 2); 148 in experiment [1] (Experiment no 3); 421 in experiment [2] (Experiment no 1); 301 in experiment [2] (Experiment no 2); 412 in experiment [2] (Experiment no 3).

On to qmayrfngigvtqnvlye [Spi226], for which the “Induction of NKp44L membrane expression” value in experiment [1] (Experiment no 1) came to 53; in experiment [1] (Experiment no 2) it was 59; in experiment [1] (Experiment no 3), 71; in experiment [2] (Experiment no 1), 103; in experiment [2] (Experiment no 2) it was 112; in experiment [2] (Experiment no 3), 119.

Turning to rfngigvtqnvlyengkl [Spi227], the “induction of the expression of NKp44L (in words)” value (“induction … (in words)” below) in experiment [1] and in experiment [2] was “induce the expression of NKp44L” each time. Further, the “Induction of NKp44L membrane expression” value in experiment [1] (Experiment no 1) was determined as 1402; in experiment [1] (Experiment no 2), 1517; in experiment [1] (Experiment no 3), 1538; in experiment [2] (Experiment no 1) it was 2507; in experiment [2] (Experiment no 2), 2726; in experiment [2] (Experiment no 3), 2592.

Regarding yenqklianqfnsaigki [Spi230], the “induction … (in words)” value in experiment [1] and in experiment [2] was “induce the expression of NKp44L” in each case. The “Induction of NKp44L membrane expression” value in experiment [1] (Experiment no 1) was 1202; in experiment [1] (Experiment no 2), 1198; in experiment [1] (Experiment no 3) it was 1195; in experiment [2] (Experiment no 1) it was 2213; in experiment [2] (Experiment no 2) it was 2403; in experiment [2] (Experiment no 3) it was 2173.

Take klianqfnsaigkiqdsl [Spi231]: the “induction … (in words)” value in experiment [1] and in experiment [2] was “induce the expression of NKp44L” each time. Also, the “Induction of NKp44L membrane expression” value in experiment [1] (Experiment no 1) came out at 1308; in experiment [1] (Experiment no 2), 1232; in experiment [1] (Experiment no 3), 1199; in experiment [2] (Experiment no 1), 2250; in experiment [2] (Experiment no 2) it was 2406; in experiment [2] (Experiment no 3) it was 2207.

Consider qnvlyenqkliangfnsa [Spi229], for which the “induction … (in words)” value in experiment [1] and in experiment [2] was “induce the expression of NKp44L” each time. For the same substance, the “Induction of NKp44L membrane expression” value worked out at 1167 in experiment [1] (Experiment no 1); 1021 in experiment [1] (Experiment no 2); 993 in experiment [1] (Experiment no 3); 2103 in experiment [2] (Experiment no 1); 1889 in experiment [2] (Experiment no 2); 1875 in experiment [2] (Experiment no 3).
